Tests used:
[1] = system: L2 peptide; test: FRET interaction between H1 and L2 peptides on microplate; assay type: binding; conditions: with increasing concentration of H1 peptide; FAM/TAMRA labels
Text: FIG. 4A is diagrams illustrating a method for confirming a specific interaction between L1 and H2 peptides and a specific interaction between L2 and H1 peptides and the measurement results thereof, and FIG. 4B is diagrams for explaining a specific interaction between L1 and H2 peptides and a specific interaction between L2 and H1 peptides analyzed using PyMOL software. Here, at the ends of the L1 and L2 peptides, a first fluorescent label, FAM (λex=488 nm, λem=532 nm) was modified, and at the ends of the H1 and H2 peptides, a second fluorescent label, TAMRA λex=532 nm, λem=570 nm) was modified. Meanwhile, the first peptide (L1 or L2) was immobilized on a parylene-H-coated microplate through a covalent bond between a formyl group of parylene-H and a primary amine group of a lysine residue in the peptide, and the second peptide (H2 or H1) was incubated with the immobilized first peptide (L1 or L2) to allow specific interactions between them.

[2] = system: rabbit anti-HRP antibodies (Fab region); test: Papain treatment of immobilized antibody with bound fluorescently labeled switching peptide (FIG. 6B); assay type: binding; conditions: after papain treatment compared to before
Text: FIG. 6A is a schematic diagram illustrating states before and after treatment of the antibody to which the four types of peptides of Example 1 were bound, respectively, with papain, which is a protease, and FIG. 6B is graphs illustrating a fluorescence intensity measured at a bottom (B) of the microplate and in a solution (S) after the papain treatment. In the case of this experiment, after immobilization of the antibodies (rabbit anti-HRP antibodies) on the microplate, binding between the antibody and the switching peptide was induced by treatment with a fluorescently labeled switching peptide, the unbound switching peptide was removed, and then the Fab region was hydrolyzed from the immobilized antibodies by adding papain, which is a protease.
Referring to FIG. 6A, the fluorescence at the bottom (B) of the microplate is expected to decrease after the papain reaction because the fluorescently labeled switching peptides are bound to the Fab region of antibodies, and the fluorescence in the solution is expected to increase because the Fab region to which the switching peptide is bound is hydrolyzed and dissolved into the solution. This prediction is proven to be true from the graphs of FIG. 6B.

[3] = system: Anti-HRP antibody(r); test: Antigen-induced release of fluorescently labeled peptide from immobilized antibody (Table 2), HRP antigen; assay type: binding, rabbit; conditions: for remaining fluorescence intensity at plate bottom after antigen binding (% of before): anti-HRP antibodies from rabbits; for Bottom (B) of microplate Change (%) / fluorescence intensity Bottom (B) of microplate After antigen binding / fluorescence intensity Bottom (B) of microplate Before antigen binding / fluorescence intensity In solution (S) After antigen binding / fluorescence intensity In solution (S) Before antigen binding: anti-HRP antibody (rabbit), HRP
[4] = system: Anti-HBsAg antibody(g); test: Antigen-induced release of fluorescently labeled peptide from immobilized antibody (Table 2), HBsAg antigen; assay type: binding, goat; conditions: for fluorescence intensity remaining at bottom of plate after antigen (% of before): anti-HBsAg antibodies from goats
[5] = system: Anti-hCG antibody(m); test: Antigen-induced release of fluorescently labeled peptide from immobilized antibody (Table 2), hCG antigen; assay type: binding; conditions: anti-hCG antibody (mouse)
[6] = system: Anti-CRP antibody(r); test: Antigen-induced release of fluorescently labeled peptide from immobilized antibody (Table 2), CRP antigen; assay type: binding; conditions: anti-CRP antibody (rabbit)
[7] = system: anti-HRP antibody from a rabbit; test: One-step immunoassay with varying HRP concentration (FIGS. 7A-7C); assay type: binding; conditions: HRP 0.3 to 100 μM; for Kd: estimated, read-out: Equilibrium dissociation constants
Text: FIG. 7A is a schematic diagram for explaining an immunoassay method using fluorescently labeled peptide compounds of Example 1, and FIGS. 7B and 7C are graphs illustrating the fluorescence intensities in a solution and at a bottom of the microplate depending on a concentration of the antigen measured by the immunoassay method illustrated in FIG. 7A. In this experiment, an anti-HRP antibody from a rabbit immobilized on a microplate was used as the binding antibody and HRP was used as the antigen.

[8] = Net charge of switching peptides at pH 6.0 to 8.0; assay type: physicochemical
Method: Regarding the antibody binding properties of the switching peptides at pH 6.0 to 8.0, a net charge of H1 and L2 peptides decreased to 0.5 at pH 6.0 to 7.0 due to a histidine residue with a pKa value of 6.02. In addition, the net charge of the H2 and L2 peptides decreased to 0.5 at pH 7.0 to 8.0 due to a cysteine residue with a pKa value of 8.18. […] Therefore, the immunoassay was performed by selecting an L1 peptide having specific dissociation from hepatitis B surface antigen-antibody binding and stability within a pH range of human serum immunoassay.

[9] = anti-HBsAg antibody (goat), HBsAg
[10] = pH 6.0 to 7.0, histidine residue pKa 6.02

Sequence | decrease of fluorescence intensity at the bottom of the microplate [2] [%] | increase of fluorescence intensity in the solution [2] | remaining fluorescence intensity at plate bottom after antigen binding (% of before) [3] [%] | Bottom (B) of microplate Change (%) [3] [%] | fluorescence intensity Bottom (B) of microplate After antigen binding [3] | fluorescence intensity Bottom (B) of microplate Before antigen binding [3] | fluorescence intensity In solution (S) After antigen binding [3] | fluorescence intensity In solution (S) Before antigen binding [3] | fluorescence intensity remaining at bottom of plate after antigen (% of before) [4] [%] | Bottom (B) of microplate Change (%) [4, 9] [%] | fluorescence intensity Bottom (B) of microplate After antigen binding [4, 9] | fluorescence intensity Bottom (B) of microplate Before antigen binding [4, 9] | fluorescence intensity In solution (S) After antigen binding [4, 9] | Bottom (B) of microplate Change (%) [5] [%] | In solution (S) Change (%) [5] | fluorescence intensity Bottom (B) of microplate After antigen binding [5] | fluorescence intensity Bottom (B) of microplate Before antigen binding [5] | fluorescence intensity In solution (S) After antigen binding [5] | fluorescence intensity In solution (S) Before antigen binding [5] | Bottom (B) of microplate Change (%) [6] [%] | also measured
SYWIHWVKQRPGQGLEWIGE [H1, SYWIH WVKQR PGQGL EWIGE] | 84.3 | 2,184% | 12.3 | −87.7 | 1451 | 11840 | 21965 | 2596 | 41.1 | −58.9 | 4618 | 11225 | 11453 | −65.6 | +206% | 1940 | 5646 | 3921 | 1281 | −26.8 | FRET intensity [1]: increase; In solution (S) Change (%) [6]: +152%; fluorescence intensity Bottom (B) of microplate After antigen binding [6]: 3595; fluorescence intensity Bottom (B) of microplate Before antigen binding [6]: 4912; fluorescence intensity In solution (S) After antigen binding [6]: 5659; fluorescence intensity In solution (S) Before antigen binding [6]: 2242; fluorescence intensity in the solution depending on the concentration of the antigen (HRP) [7]: increase; Kd [7]: 1.65 µM; net charge [8, 10]: 0.5
VYYCFQGSHVPFTK [L2, VYYCF QGSHV PFTK] | 72.5 | 2,452% | 25.5 | −74.5 | 3208 | 12584 | 16135 | 2315 | 35.2 | −64.8 | 9856 | 28002 | 15359 | −90.7 | +456% | 3072 | 33156 | 9402 | 1692 | −44.9 | fluorescence intensity In solution (S) Before antigen binding [4, 9]: 2279; In solution (S) Change (%) [6]: +883%; fluorescence intensity Bottom (B) of microplate After antigen binding [6]: 11236; fluorescence intensity Bottom (B) of microplate Before antigen binding [6]: 20394; fluorescence intensity In solution (S) After antigen binding [6]: 32187; fluorescence intensity In solution (S) Before antigen binding [6]: 3274; fluorescence intensity in the solution depending on the concentration of the antigen (HRP) [7]: increase; Kd [7]: 1.48 µM; net charge [8, 10]: 0.5; net charge ([8]; pH 7.0 to 8.0, cysteine residue pKa 8.18): 0.5

From US20240059738A1, “SWITCHING PEPTIDE AND MULTIPLEX IMMUNOASSAY METHOD USING SAME” (OPTOLANE TECHNOLOGIES INC., priority 2021, published 2024)
